This is an account of results in PubChem BioAssay (NCI).

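Each compound was tested at five concentrations against cells in 96-well plates for 48 hours. GI50 is the concentration that inhibits growth by half. TGI is the concentration that stops growth completely.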

What all share (experiment): NCI tumour cell line growth inhibition, 48 h
The test system of assay [1] is SF-295 CNS.
Assay [2] deals with DU-145 prostate.
The subject of assay [3] is ACHN renal.
In assay [4] the test system is UO-31 renal.
The subject of assay [5] is CCRF-CEM leukemia.
Assay [6] concerns CAKI-1 renal.
The test system of assay [7] is HCT-116 colon.
Assay [8] concerns SNB-19 CNS.
In assay [9] the test system is U251 CNS.
Assay [10] has as its system MDA-MB-435.

Turning to `CCn1c(-c2nonc2N)nc2cnc(Oc3cccc(NC(=O)c4ccc(OCCN5CCOCC5)cc4)c3)cc21`, the GI50 in [1] is 0.974 µM; in [2], 5.43 µM; in assay [3] it was 2.17 µM; in assay [4], 0.0089 µM; in assay [5], 0.671 µM; in assay [6] it was 0.116 µM. For the same compound, the GI50 is 1.81 µM in assay [7], 12.1 µM in assay [8], 7.17 µM in [9] and 7.39 µM in [10]. The TGI was > 16.9 µM in assay [1]; > 25 µM in assay [2]; > 25 µM in assay [3]; 5.07 µM in assay [4]; > 25 µM in assay [5]; > 17.9 µM in assay [6]. Moreover, the TGI in [7], in [8], in assay [9] and in assay [10] was > 25 µM in each case.
For `COc1ccc(CC(C)NCC(O)c2ccc(O)c(NC=O)c2)cc1` (stereo not given), the TGI in [1], in [2], in assay [3], in [4], in [5] and in assay [6] was > 100 µM in each case. For the same compound, the TGI in assay [7], in assay [8], in [9] and in assay [10] was > 100 µM throughout.
In the case of `COc1cccc(C2CC(C)(O)Oc3cc4c(cc32)OCO4)c1` (stereo not given), the TGI is 95.7 µM in assay [1]; > 100 µM in [2]; > 100 µM in assay [3]; 72.2 µM in assay [4]; > 100 µM in assay [5]; > 100 µM in [6]. For the same compound, the TGI is 28.5 µM in assay [7], > 100 µM in assay [8], 86.5 µM in assay [9] and 15.2 µM in [10].
`C=C(C)[C@@H]1CC[C@]2(C(=O)OC)CC[C@]3(C)[C@H](CC[C@@H]4[C@@](C)(CCc5nn[nH]n5)[C@H](C(=C)C)CC[C@]43C)[C@@H]12`: the GI50 was 13.6 µM in [1]; 16 µM in assay [2]; 15 µM in [3]; 10.9 µM in assay [4]; 6.72 µM in assay [5]; 10.2 µM in assay [6]. Also, the GI50 in assay [7] is 26.9 µM; in [8], 15.4 µM; in assay [9] it was 15.4 µM; in assay [10], 17.6 µM. Moreover, the TGI in assay [1] turned out to be 44.3 µM; in assay [2], 32.4 µM; in assay [3], 48.1 µM; in assay [4], 23 µM; in assay [5], 37.2 µM; in assay [6], 35 µM. Moreover, the TGI in [7] is > 100 µM; in assay [8], 35.7 µM; in assay [9], 32.4 µM; in [10], 44.2 µM.
In the case of `CCCCCCCCCCCC1=NC(C)(C)CN1C(C)C`, the GI50 in assay [1] was 3.05 µM; in [2], 5.46 µM; in assay [3] it was 4.15 µM; in [4], 2.75 µM; in assay [5], 2.7 µM; in assay [6] it was 2.68 µM. Further, the GI50 in assay [7] is 2.83 µM; in [8], 11.3 µM; in assay [9] it was 3.4 µM; in assay [10] it was 2 µM. Moreover, the TGI in assay [1] came to 10.7 µM; in assay [2], 17.9 µM; in [3] it was 15.7 µM; in assay [4], 12.5 µM; in assay [5], 10.1 µM; in [6] it was 14 µM. The TGI in [7] amounted to 10.4 µM; in assay [8] it was 23.4 µM; in [9], 12.8 µM; in assay [10], 5.33 µM.
As for `COc1ccc(-c2nn3ncccc3c2-c2ccnc(Nc3ccc(F)c(F)c3)n2)cc1`, the GI50 in [1] was 4.26 µM; in assay [2] it was 15.8 µM; in [3], 10.4 µM; in [4], 5.8 µM; in assay [5] it was 11.2 µM; in assay [6] it was 7.65 µM. In addition, the GI50 in assay [7] was 7.15 µM; in [8] it was 14.3 µM; in assay [9], 10.3 µM; in assay [10], 7.39 µM. Further, the TGI in assay [1] was > 25 µM; in assay [2], > 25 µM; in [3], > 25 µM; in assay [4], > 20.9 µM; in assay [5], > 25 µM; in [6], > 23.4 µM. The TGI in [7], in assay [8], in assay [9] and in assay [10] was > 25 µM throughout.
For `Cc1ccc(NC(=O)c2ccoc2)cc1-c1ccc(C(=O)NCC2CC2)cc1`, the GI50 was > 14.8 µM in assay [1]; > 25 µM in assay [2]; > 25 µM in [3]; > 9.98 µM in assay [4]; > 25 µM in assay [5]; > 25 µM in assay [6]. Also, the GI50 in [7], in assay [8], in assay [9] and in assay [10] was > 25 µM throughout. In addition, the TGI in [1] is > 25 µM; in assay [2], > 25 µM; in assay [3], > 25 µM; in [4], > 17.1 µM; in assay [5], > 25 µM; in [6] it was > 25 µM. Also, the TGI in assay [7], in [8], in assay [9] and in [10] was > 25 µM in each case.
For the compound `CC(C)Cn1cnc2c(N)nc3ccccc3c21`, the GI50 in assay [1] is 51.3 µM; in assay [2], 47.2 µM; in [3], 27.9 µM; in assay [4] it was 35.8 µM; in [5] it was > 49 µM; in assay [6], 34.8 µM. Besides, the GI50 in [7] was 19.8 µM; in assay [8], > 93.3 µM; in [9], 47.5 µM; in [10] it was 48.9 µM. Also, the TGI in assay [1], in assay [2], in assay [3], in assay [4], in assay [5] and in [6] was > 100 µM each time. For the same compound, the TGI was > 73.1 µM in assay [7], > 100 µM in assay [8], > 100 µM in [9] and > 100 µM in assay [10].
